Results: US6723735B1, “Imidazo-pyridine derivatives as ligands for GABA receptors” (Merck Sharp & Dohme Ltd., priority 1999, dated 2004)
Counter-ions that a name gives are not always drawn.

Row | SMILES | melting point
1 | c1cc(-n2ccnc2)cc(-n2cnc3cc(-c4ccoc4)cnc32)c1 (as salt: oxalate) [Example 3, 6-(Furan-3-yl)-3-[3-(imidazol-1-yl)phenyl]-3H-imidazo[4,5-b]pyridine] | 202 to 204 °C
2 | c1cncc(-c2cccc(-n3cnc4cc(-c5ccoc5)cnc43)c2)c1 [Example 1, 6-(Furan-3-yl)-3-[3-(pyridin-3-yl)phenyl]-3H-imidazo[4,5-b]pyridine] | 191 to 192 °C
3 | c1ccc(-c2cnc3c(c2)ncn3-c2cccc(-c3cccnc3)c2)cc1 [Example 5, 6-Phenyl-3-[3-(pyridin-3-yl)phenyl]-3H-imidazo[4,5-b]pyridine] | 179 to 180 °C
